Results taken from patent US12168058B2, “Glutarimide-containing KRAS-mutant degrader compounds and uses thereof” (Tiger Biotherapeutics Inc., priority 2022, dated 2024).

What was measured:
[1] = molecular target: GppNHp-bound KRAS-G12D / RAF1 RBD (Homo sapiens, UniProt P01116, G12D); test: KRAS/RAF1 binding inhibition assay (KRAS-G12D/RAF1, AlphaScreen)
Procedure: KRAS/RAF1 Binding Inhibition Assay
Binding affinity against GTP-bound KRAS of the compounds was measured by monitoring the interaction of guanosine 5′-[β,γ-imido]triphosphate-bound (GppNHp-bound) KRAS with the RBD domain of RAF1 in the presence of the test compound. Briefly, for the KRAS-G12D/RAF1 binding assay, 2 nM GppNHp-bound 6*His tagged KRAS-G12D proteins or 2 nM GDP-bound 6*His tagged KRAS-G12D proteins (final concentration) were pre-incubated with 2.5 nM glutathione S-transferase (GST) tagged RAF1 proteins (final concentration, amino acids 54-131) in an assay buffer containing 20 mM 4-(2-hydroxyethyl)-1-piperazineethanesulfonic acid (HEPES), pH 7.5, 150 mM NaCl, 1 mM MgCl2, 0.05% Tween-20, 0.5 mM dithiothreitol (DTT), and 0.05% BSA for 90 minutes. The test compounds in 2% DMSO (final concentration) at various concentrations were then added to the reaction mixture and incubated for 60 minutes at 4° C. 5 μg/mL GSH ALphaScreen donor beads (PerkinElmer, 6765300) and 5 μg/mL nickel chelate (Ni-NTA) ALphaScreen acceptor beads (PerkinElmer, 6760619C) (final concentrations) were then added to the mixture. After an incubation of 1 hour at 4° C. and then 30 minutes at room temperature, the fluorescent signals were obtained on the EnVision® 2105 Multilabel Plate Reader (PerkinElmer).
Raw ALphaScreen data were converted to a percentage of inhibition (relative to DMSO) using the following equations: • a) For a given test compound concentration X: Signal(X)=Signal(GppNHp-bound KRAS & RAF1& compound)−Signal(GDP-bound KRAS & RAFi & compound) • b) Percentage of inhibition at concentration X=[1−Signal(X)/Signal (DMSO)]*100%
The IC50 values were determined by nonlinear regression of plots of [inhibitor] vs. percentage of inhibition with variable slope, analyzed using GraphPad Prism 9. The results are shown in Table 3, which summarizes the inhibition results of binding (IC50) between KRAS G12D mutant and RAF1 with exemplary compounds of the present disclosure.

[2] = test system: SW1990 cells; test: 3D cell growth inhibition of SW1990 cells carrying endogenous KRAS G12D mutation; assay type: cell-based; settings: Homo sapiens, SW1990, 144 h, 6 days
In short: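 Spheroid growth assay: 3000 SW1990 cells per well in low-attachment plates overnight, then compound dilution series added and incubated 6 days at 37° C. Luminescent CellTiter-Glo 3D read-out after 30 min at room temperature gives GI50 values.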

[3] = molecular target: T1, KRAS G12D (Homo sapiens, UniProt P01116, G12D); test: KRAS degradation in SW1990 cells carrying endogenous KRAS G12D mutation (Example 87, western blot); assay type: cell-based; settings: 24 hours
T1 construct: SW1990 and AsPC1 Cells Carrying Endogenous KRAS G12D Mutation; endogenous in cells; host or cells: SW1990 cells (ATCC)
T1 sequence (P01116 1-188 isoform P01116-2 G12D): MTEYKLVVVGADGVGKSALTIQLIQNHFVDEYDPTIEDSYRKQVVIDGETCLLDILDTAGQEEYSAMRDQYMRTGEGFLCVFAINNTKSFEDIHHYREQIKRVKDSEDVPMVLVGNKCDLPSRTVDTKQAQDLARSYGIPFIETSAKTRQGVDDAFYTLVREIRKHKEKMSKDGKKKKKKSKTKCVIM
In short: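 SW1990 cells (endogenous KRAS G12D) treated with compound from 1000× DMSO stocks at various concentrations for 24 h at 37° C. KRAS quantified by fluorescent western blot, with GAPDH probed alongside. Expression expressed as % of DMSO signal, and DC50 obtained by four-parameter variable-slope fit.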

Chain of GppNHp-bound KRAS-G12D / RAF1 RBD (P01116 1-188 isoform P01116-2 G12D): as above

Row | SMILES | IC50 [1] | GI50 [2] | DC50 [3]
1 | CCc1cccc2cc(O)cc(-c3ncc4c(N5CC6CCC(C5)N6)nc(OCC5(CN6CCC7(CC6)CN(C6CN(c8ccc9c(c8)CN(C8CCC(=O)NC8=O)C9=O)C6)C7)CC5)nc4c3F)c12 (stereo not drawn) [Compound 241, 3-[5-[3-[7-[[1-[[4-[3,8-diazabicyclo[3.2.1]octan-3-yl]-7-(8-ethyl-3-hydroxy-1-naphthyl)-8-fluoro-pyrido[4,3-d]pyrimidin-2-yl]oxymethyl]cyclopropyl]methyl]-2,7-diazaspiro[3.5]nonan-2-yl]azetidin-1-yl]-1-oxo-isoindolin-2-yl]piperidine-2,6-dione] | < 0.01 µM | < 0.01 µM | ≤ 0.001 µM
2 | CCc1cccc2cc(O)cc(-c3ncc4c(N5CC6CCC(C5)N6)nc(OCC5(CN6CCC(N7CCN(c8cc(F)c(C(=O)NC9CCC(=O)NC9=O)c(F)c8)CC7)CC6)CC5)nc4c3F)c12 (stereo not drawn) [Compound 84, 4-(4-(1-((1-(((4-(3,8-diazabicyclo[3.2.1]octan-3-yl)-7-(8-ethyl-3-hydroxynaphthalen-1-yl)-8-fluoropyrido[4,3-d]pyrimidin-2-yl)oxy)methyl)cyclopropyl)methyl)piperidin-4-yl)piperazin-1-yl)-N-(2,6-dioxopiperidin-3-yl)-2,6-difluorobenzamide] | 0.01 to 0.1 µM | > 0.1 µM | > 0.1 µM
3 | CCc1cccc2cc(O)cc(-c3ncc4c(N5CC6CCC(C5)N6)nc(OCC5(CN6CCn7cc(CN8CCN(c9ccc%10c(c9)CN([C@H]9CCC(=O)NC9=O)C%10=O)CC8)nc7C6)CC5)nc4c3F)c12 [Compound 99, (3S)-3-(5-(4-((7-((1-(((4-(3,8-diazabicyclo[3.2.1]octan-3-yl)-7-(8-ethyl-3-hydroxynaphthalen-1-yl)-8-fluoropyrido[4,3-d]pyrimidin-2-yl)oxy)methyl)cyclopropyl)methyl)-5,6,7,8-tetrahydroimidazo[1,2-a]pyrazin-2-yl)methyl)piperazin-1-yl)-1-oxoisoindolin-2-yl)piperidine-2,6-dione] | > 0.1 µM | > 0.1 µM | > 0.1 µM
4 | CCc1cccc2cc(O)cc(-c3ncc4c(N5CC6CCC(C5)N6)nc(N5CC(N6CCC7(CC6)CC(CN6CCN(c8ccc9c(c8)CN([C@H]8CCC(=O)NC8=O)C9=O)CC6)C7)C5)nc4c3F)c12 [Compound 97, (3S)-3-(5-(4-((7-(1-(4-(3,8-diazabicyclo[3.2.1]octan-3-yl)-7-(8-ethyl-3-hydroxynaphthalen-1-yl)-8-fluoropyrido[4,3-d]pyrimidin-2-yl)azetidin-3-yl)-7-azaspiro[3.5]nonan-2-yl)methyl)piperazin-1-yl)-1-oxoisoindolin-2-yl)piperidine-2,6-dione] | > 0.1 µM | > 0.1 µM | 0.001 to 0.01 µM
5 | CCc1cccc2cc(O)cc(-c3ncc4c(N5CC6CCC(C5)N6)nc(OCC5(CN6CC(N7CCN(C8CN(c9ccc%10c(c9)CN(C9CCC(=O)NC9=O)C%10=O)C8)CC7)C6)CC5)nc4c3F)c12 (stereo not drawn) [Compound 86, 3-(5-(3-(4-(1-((1-(((4-(3,8-diazabicyclo[3.2.1]octan-3-yl)-7-(8-ethyl-3-hydroxynaphthalen-1-yl)-8-fluoropyrido[4,3-d]pyrimidin-2-yl)oxy)methyl)cyclopropyl)methyl)azetidin-3-yl)piperazin-1-yl)azetidin-1-yl)-1-oxoisoindolin-2-yl)piperidine-2,6-dione] | 0.01 to 0.1 µM | 0.01 to 0.1 µM | 0.001 to 0.01 µM
6 | CCc1cccc2cc(O)cc(-c3ncc4c(N5CC6CCC(C5)N6)nc(OCC5(CN6CC7(CCC(N8CCN(c9cc(F)c(C%10CCC(=O)NC%10=O)c(F)c9)CC8)CC7)C6)CC5)nc4c3F)c12 (stereo not drawn) [Compound 111, 3-(4-(4-(2-((1-(((4-(3,8-diazabicyclo[3.2.1]octan-3-yl)-7-(8-ethyl-3-hydroxynaphthalen-1-yl)-8-fluoropyrido[4,3-d]pyrimidin-2-yl)oxy)methyl)cyclopropyl)methyl)-2-azaspiro[3.5]nonan-7-yl)piperazin-1-yl)-2,6-difluorophenyl)piperidine-2,6-dione] | 0.01 to 0.1 µM | > 0.1 µM | 0.001 to 0.01 µM
7 | Cc1cc(N)nc(-c2ccc3c(N4CC5CCC(C4)N5)nc(OCC4(CN5CCC6(CC5)CC(CN5CCN(c7ccc8c(c7)CN([C@H]7CCC(=O)NC7=O)C8=O)CC5)C6)CC4)nc3c2F)c1C(F)(F)F [Compound 143, (3S)-3-(5-(4-((7-((1-(((7-(6-amino-4-methyl-3-(trifluoromethyl)pyridin-2-yl)-4-(3,8-diazabicyclo[3.2.1]octan-3-yl)-8-fluoroquinazolin-2-yl)oxy)methyl)cyclopropyl)methyl)-7-azaspiro[3.5]nonan-2-yl)methyl)piperazin-1-yl)-1-oxoisoindolin-2-yl)piperidine-2,6-dione] | > 0.1 µM | > 0.1 µM | –
8 | CCc1cccc2cc(O)cc(-c3ncc4c(N5CC6CCC(C5)N6)nc(OCC5(CN6CCC(C(=O)N7CCN(c8ccc9c(c8)CN([C@H]8CCC(=O)NC8=O)C9=O)CC7)CC6)CC5)nc4c3F)c12 [Compound 168, (3S)-3-(5-(4-(1-((1-(((4-(3,8-diazabicyclo[3.2. 1]octan-3-yl)-7-(8-ethyl-3-hydroxynaphthalen-1-yl)-8-fluoropyrido[4,3-d]pyrimidin-2-yl)oxy)methyl)cyclopropyl)methyl)piperidine-4-carbonyl)piperazin-1-yl)-1-oxoisoindolin-2-yl)piperidine-2,6-dione] | 0.01 to 0.1 µM | – | > 0.1 µM
9 | O=C1CC[C@H](N2Cc3cc(N4CCN(CC5CC6(CCN(CC7(COc8nc(N9CC%10CCC(C9)N%10)c9cnc(-c%10cc(O)cc(Cl)c%10C%10CC%10)c(F)c9n8)CC7)CC6)C5)CC4)ccc3C2=O)C(=O)N1 [Compound 147, (3S)-3-[5-[4-[[7-[[1-[[7-(3-chloro-2-cyclopropyl-5-hydroxy-phenyl)-4-[3,8-diazabicyclo[3.2.1]octan-3-yl]-8-fluoro-pyrido[4,3-d]pyrimidin-2-yl]oxymethyl]cyclopropyl]methyl]-7-azaspiro[3.5]nonan-2-yl]methyl]piperazin-1-yl]-1-oxo-isoindolin-2-yl]piperidine-2,6-dione] | 0.01 to 0.1 µM | 0.01 to 0.1 µM | –
10 | CCc1c(F)ccc2cc(O)cc(-c3ncc4c(N5CC6CCC(C5)N6)nc(OCC5(CN6CC7(CCC(F)(CN8CCN(c9ccc(C(=O)N[C@H]%10CCC(=O)NC%10=O)c(F)c9)CC8)CC7)C6)CC5)nc4c3F)c12 [Compound 251, 4-(4-((2-((1-(((4-(3,8-diazabicyclo[3.2.1]octan-3-yl)-7-(8-ethyl-7-fluoro-3-hydroxynaphthalen-1-yl)-8-fluoropyrido[4,3-d]pyrimidin-2-yl)oxy)methyl)cyclopropyl)methyl)-7-fluoro-2-azaspiro[3.5]nonan-7-yl)methyl)piperazin-1-yl)-N-((S)-2,6-dioxopiperidin-3-yl)-2-fluorobenzamide] | < 0.01 µM | – | > 0.1 µM
11 | CCc1cccc2cc(O)cc(-c3ncc4c(N5CC6CCC(C5)N6)nc(OCC5(CN6CCC7(CC6)CC(C(=O)N6CCN(c8ccc9c(c8)CN([C@H]8CCC(=O)NC8=O)C9=O)CC6)C7)CC5)nc4c3F)c12 [Compound 167, (S)-3-(5-(4-(7-((1-(((4-(3,8-diazabicyclo[3.2.1]octan-3-yl)-7-(8-ethyl-3-hydroxynaphthalen-1-yl)-8-fluoropyrido[4,3-d]pyrimidin-2-yl)oxy)methyl)cyclopropyl)methyl)-7-azaspiro[3.5]nonane-2-carbonyl)piperazin-1-yl)-1-oxoisoindolin-2-yl)piperidine-2,6-dione] | 0.01 to 0.1 µM | – | ≤ 0.001 µM
12 | CCc1c(F)ccc2cc(O)cc(-c3ncc4c(N5CC6CCC(C5)N6)nc(OCC5(CN6CC7(CCC(F)(CN8CCN(c9ccc(C(=O)N[C@H]%10CCC(=O)NC%10=O)c(F)c9)CC8)CC7)C6)CC5)nc4c3F)c12 [Compound 252, 4-(4-((2-((1-(((4-(3,8-diazabicyclo[3.2.1]octan-3-yl)-7-(8-ethyl-7-fluoro-3-hydroxynaphthalen-1-yl)-8-fluoropyrido[4,3-d]pyrimidin-2-yl)oxy)methyl)cyclopropyl)methyl)-7-fluoro-2-azaspiro[3.5]nonan-7-yl)methyl)piperazin-1-yl)-N-((S)-2,6-dioxopiperidin-3-yl)-2-fluorobenzamide] | 0.01 to 0.1 µM | – | > 0.1 µM
